Results from ChEMBL document CHEMBL2440098, “Binding mode characterization of 6α- and 6β-N-heterocyclic substituted naltrexamine derivatives via docking in opioid receptor crystal structures and site-directed mutagenesis studies: application of the 'message-address' concept in development of mu opioid receptor selective antagonists” (Bioorg Med Chem, 2013).
pIC50, pKi: −log10 of the molar value.

Assays:
[1] = biological target: T1, Mu-type opioid receptor (Homo sapiens, UniProt P35372); assay: Binding affinity to wild type MOR (unknown origin) expressed in CHO cells after 15 mins by Ca2+ mobilization assay; format: cell-based
[2] = Binding affinity to MOR Y210A mutant (unknown origin) expressed in CHO cells after 15 mins by Ca2+ mobilization assay; format: cell-based, Homo sapiens
[3] = biological target: T1, Mu-type opioid receptor

T1 sequence (P35372 whole entry): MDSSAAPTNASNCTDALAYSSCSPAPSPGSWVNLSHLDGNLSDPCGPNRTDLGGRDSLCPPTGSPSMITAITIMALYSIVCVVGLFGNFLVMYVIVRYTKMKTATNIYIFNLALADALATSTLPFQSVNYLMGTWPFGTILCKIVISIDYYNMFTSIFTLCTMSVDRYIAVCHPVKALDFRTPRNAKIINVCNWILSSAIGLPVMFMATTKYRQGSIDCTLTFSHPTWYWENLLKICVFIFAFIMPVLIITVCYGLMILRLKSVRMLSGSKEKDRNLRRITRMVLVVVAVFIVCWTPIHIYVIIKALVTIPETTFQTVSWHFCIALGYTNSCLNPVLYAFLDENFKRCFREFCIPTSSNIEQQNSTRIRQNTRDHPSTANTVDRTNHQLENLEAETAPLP

Compound O=C(N[C@H]1CC[C@@]2(O)[C@H]3Cc4ccc(O)c5c4[C@@]2(CCN3CC2CC2)[C@H]1O5)c1cc2ccccc2cn1 has a pKi [1] of 8.59, a pIC50 [2] of 8.48 and a pKi [2] of 8.80. The pIC50 [3] was 6.82.
